Results reported in article PMC7046553, “Backbone Cyclization and Dimerization of LL-37-Derived Peptides Enhance Antimicrobial Activity and Proteolytic Stability” (Frontiers in Microbiology, 2020).
Converted amounts (≈) assume the structure as drawn. Where two headings read alike, the source gives them in different places. Where a SMILES comes first, the peptide text is derived from it. Where no end group is shown, it is not given here.

Assays:
[1] = tested on: human lymphoma cell line U-937 GTB; details: read-out: IC50 (cytotoxicity); 72 hours incubation; tested in parallel with the dimers; ref Gunasekera et al., 2018; cited from earlier work
[2] = tested on: Pseudomonas aeruginosa ATCC 27853; details: ATCC 27853, 5 h
Experimental: (§1) The three bacterial strains: Escherichia coli ATCC 25922, Pseudomonas aeruginosa ATCC 27853 Staphylococcus aureus ATCC 29213 as well as the fungal strain Candida albicans ATCC 90028 derived from clinical wound infections were obtained from the Department of Clinical Bacteriology at Lund University Hospital.
(§2) Antimicrobial activities of the peptides were evaluated using the two-step microdilution assay ([Strömstedt et al., 2017]), which is designed for testing AMPs without activity-inhibiting components. Briefly, the microbial suspension was washed twice with 10 mM Tris buffer (set to pH 7.4 at 37°C). 96-well plates (U-shaped, untreated polystyrene) were prepared with peptide 2-fold serial dilutions in Tris buffer. The culture density was quantified by OD600, diluted in Tris buffer and 50,000 cells aliquoted to each well in the 96-well plate to a final 100 μl volume. After 5 h of aerobic incubation at 37°C, 5 μl of 20% TSB medium was added to each well (resulting in 1% TSB) and the plates were re-incubated. Growth-inhibition was monitored when controls produced pellet sizes of 2 mm in diameter (close to growth saturation), which equates to 5, 8, 10, and 12 h for E. coli, S. aureus, P. aeruginosa, and C. albicans, respectively. […] The MIC-values in Table 1, are medians from triplicate experiments, while the data presented in the Figure 2 are the same values relative to that of KR-12.

[3] = tested on: Escherichia coli ATCC 25922; details: ATCC 25922, 5 h
Experimental: as §1, §2

[4] = tested on: Staphylococcus aureus ATCC 29213; details: ATCC 29213, 5 h
Experimental: as §1, §2

in vitro = details: 25% human serum
Experimental: Proteolytic stability of the peptides were determined in diluted human serum (1:4 v/v, serum:PBS) at 37°C followed by LC-MS analysis. To examine the intact peptide after serum incubation, aliquots of each incubation mixture were taken at each time point for LC-MS analysis (Figure 5).
Peptide stability was assayed in diluted human serum. 25% human serum was centrifuged at 13,000 rpm for 10 min to remove lipids and the supernatant was collected and incubated at 37°C for 15 min. […] Eighty μl of 6 M urea was added and incubated at 4°C for a further 10 min. 80 μl of 20% TCA was added and incubated at 4°C for a further 10 min. The samples were centrifuged at 13000 g for 10 min and the supernatant was analyzed by LC-MS.

[5] = tested on: Candida albicans ATCC 90028; details: ATCC 90028, 5 h
Experimental: as §1, §2

[6] = assay type: cell-based, human
Source text: FIGURE 4 Cytotoxicity. Cytotoxicity on a human lymphoma cell line (U-937 GTB). The cell viability derives from the hydrolysis of the probe fluorescein diacetate by esterases in cells with intact plasma membranes. Results are means from triplicates with standard deviation, and the IC50 level is highlighted by a double line. The dose–response curve for LL-37 has been constrained within 100% to compensate for elevated fluorescein hydrolysis by intermediate LL-37 concentrations. The data for KR-12, Q5K,D9K and LL-37 are from our previous work ([Gunasekera et al., 2018]), but tested in parallel with the dimers and included here for consistency.
The cytotoxicity of the peptides was tested on the human lymphoma cell line U-937 GTB in a fluorometric microculture cytotoxicity assay (FMCA), described in detail previously ([Sundström and Nilsson, 1976]; [Lindhagen et al., 2008]). […] After incubation for 40 minutes the fluorescence was measured at 485 nm excitation and 538 nm emission using a Fluoroscan II (Labsystems Diagnostics Oy, Helsinki, FinlandI). The IC50-values were calculated using sigmoidal dose response curves with nonlinear non-linear regression and 0/100 constraints in GraphPad Prism (GraphPad Software, San Diego, CA, United States). […]

Human type A RBCs = assay: Hemolysis assay; assay type: cell-based
Experimental: Peptides were dissolved in water and serially diluted in PBS to give 20 μl test solutions in a 96-well U-bottomed microtiter plate (Nunc). Human type A RBCs (red blood cells) were washed with PBS and centrifuged at 1500 g for 60 s in a microcentrifuge several times until a clear supernatant was obtained. A 0.25% suspension of washed RBCs in PBS (100 μl) was added to the peptide solutions. The plate was incubated at 37°C for 1 h and centrifuged at 150 g for 5 min. Aliquots of 100 μl were transferred to a 96-well flat-bottomed microtiter plate (Falcon) and the absorbance was measured at 405 nm with an automatic Multiskan Ascent plate reader (Labsystems). The amount of hemolysis was calculated as the percentage of maximum lysis (1% Triton X-100 control) after adjusting for minimum lysis (PBS control). Synthetic melittin (Sigma) was used for comparison. The hemolytic dose necessary to lyse 50% of the RBCs (HD50) was calculated using the regression constant from the linear portion of the hemolytic titration curve (GraphPad Prism software).

Compound | IC50 [1] [µM] | MIC P. aeruginosa [2] [µM] | MIC E. coli [3] [µM] | MIC S. aureus [4] [µM] | remaining at 6 h (in vitro; human) [%] | MIC bact. [3] [µM] | MIC C. albicans [5] [µM] | MIC fung. [5] [µM] | IC50 [6] [µM] | HC50 (hemolysis) (Human type A RBCs; red cells of human, 1 h) [µM] | HC50 (hemolysis) (Human type A RBCs) [µM] | detection in serum after 20 min (in vitro; 37°C) | remaining at 10 min (in vitro; human) [%]
CC[C@H](C)[C@H](NC(=O)[C@H](CCCCN)NC(=O)[C@H](CCC(=O)O)NC(=O)[C@H](CCCCN)NC(=O)[C@H](CO)NC(=O)[C@H](CCCCN)NC(=O)[C@H](CCCNC(=N)N)NC(=O)[C@H](Cc1ccccc1)NC(=O)[C@H](Cc1ccccc1)NC(=O)[C@H](CC(=O)O)NC(=O)CNC(=O)[C@H](CC(C)C)NC(=O)[C@@H](N)CC(C)C)C(=O)NCC(=O)N[C@@H](CCCCN)C(=O)N[C@@H](CCC(=O)O)C(=O)N[C@@H](Cc1ccccc1)C(=O)N[C@@H](CCCCN)C(=O)N[C@@H](CCCNC(=N)N)C(=O)N[C@H](C(=O)N[C@H](C(=O)N[C@@H](CCC(N)=O)C(=O)N[C@@H](CCCNC(=N)N)C(=O)N[C@H](C(=O)N[C@@H](CCCCN)C(=O)N[C@@H](CC(=O)O)C(=O)N[C@@H](Cc1ccccc1)C(=O)N[C@@H](CC(C)C)C(=O)N[C@@H](CCCNC(=N)N)C(=O)N[C@@H](CC(N)=O)C(=O)N[C@@H](CC(C)C)C(=O)N[C@H](C(=O)N1CCC[C@H]1C(=O)N[C@@H](CCCNC(=N)N)C(=O)N[C@H](C(=O)N[C@@H](CCC(=O)O)C(=O)N[C@@H](CO)C(=O)O)[C@@H](C)O)C(C)C)[C@@H](C)CC)C(C)C)[C@@H](C)CC [LL-37] | 10 | – | – | – | – | – | – | – | – | – | – | – | –
CC[C@H](C)[C@@H]1NC(=O)[C@H](CCCNC(=N)N)NC(=O)[C@H](CCC(N)=O)NC(=O)[C@H](C(C)C)NC(=O)[C@H]([C@@H](C)CC)NC(=O)[C@H](CCCNC(=N)N)NC(=O)[C@H](CCCCN)NC(=O)[C@H](C)NC(=O)CNC(=O)[C@H](CCCNC(=N)N)NC(=O)[C@H](CC(C)C)NC(=O)[C@H](Cc2ccccc2)NC(=O)[C@H](CC(=O)O)NC(=O)[C@H](CCCCN)NC(=O)[C@H]([C@@H](C)CC)NC(=O)[C@H](CCCNC(=N)N)NC(=O)[C@H](CCC(N)=O)NC(=O)[C@H](C(C)C)NC(=O)[C@H]([C@@H](C)CC)NC(=O)[C@H](CCCNC(=N)N)NC(=O)[C@H](CCCCN)NC(=O)[C@H](C)NC(=O)CNC(=O)[C@H](CCCNC(=N)N)NC(=O)[C@H](CC(C)C)NC(=O)[C@H](Cc2ccccc2)NC(=O)[C@H](CC(=O)O)NC(=O)[C@H](CCCCN)NC1=O [cd2] (cyclo(AKRIVQRIKDFLRGAKRIVQRIKDFLRG)) | – | 0.625 (≈ 2.1 µg/mL) | 0.625 (≈ 2.1 µg/mL) | 1.25 (≈ 4.21 µg/mL) | ~30 | – | – | – | – | – | – | – | –
CC[C@H](C)[C@@H]1NC(=O)[C@H](CCCNC(=N)N)NC(=O)[C@H](CCCCN)NC(=O)[C@H](C(C)C)NC(=O)[C@H]([C@@H](C)CC)NC(=O)[C@H](CCCNC(=N)N)NC(=O)[C@H](CCCCN)NC(=O)CNC(=O)CNC(=O)[C@H](C)NC(=O)CNC(=O)[C@H](CCCNC(=N)N)NC(=O)[C@H](CC(C)C)NC(=O)[C@H](Cc2ccccc2)NC(=O)[C@H](CCCCN)NC(=O)[C@H](CCCCN)NC(=O)[C@H]([C@@H](C)CC)NC(=O)[C@H](CCCNC(=N)N)NC(=O)[C@H](CCCCN)NC(=O)[C@H](C(C)C)NC(=O)[C@H]([C@@H](C)CC)NC(=O)[C@H](CCCNC(=N)N)NC(=O)[C@H](CCCCN)NC(=O)CNC(=O)CNC(=O)[C@H](C)NC(=O)CNC(=O)[C@H](CCCNC(=N)N)NC(=O)[C@H](CC(C)C)NC(=O)[C@H](Cc2ccccc2)NC(=O)[C@H](CCCCN)NC(=O)[C@H](CCCCN)NC1=O [cd4(Q5K,D9K)] (cyclo(AGGKRIVKRIKKFLRGAGGKRIVKRIKKFLRG)) | – | 0.625 (≈ 2.26 µg/mL) | 0.625 (≈ 2.26 µg/mL) | 0.625 (≈ 2.26 µg/mL) | ~50 | 0.63 (≈ 2.28 µg/mL) | 1.25 (≈ 4.52 µg/mL) | 1.25 (≈ 4.52 µg/mL) | 1 | 10 | – | – | –
CC[C@H](C)[C@@H]1NC(=O)[C@H](CCCNC(=N)N)NC(=O)[C@H](CCC(N)=O)NC(=O)[C@H](C(C)C)NC(=O)[C@H]([C@@H](C)CC)NC(=O)[C@H](CCCNC(=N)N)NC(=O)[C@H](CCCCN)NC(=O)CNC(=O)CNC(=O)[C@H](C)NC(=O)CNC(=O)[C@H](CCCNC(=N)N)NC(=O)[C@H](CC(C)C)NC(=O)[C@H](Cc2ccccc2)NC(=O)[C@H](CC(=O)O)NC(=O)[C@H](CCCCN)NC(=O)[C@H]([C@@H](C)CC)NC(=O)[C@H](CCCNC(=N)N)NC(=O)[C@H](CCC(N)=O)NC(=O)[C@H](C(C)C)NC(=O)[C@H]([C@@H](C)CC)NC(=O)[C@H](CCCNC(=N)N)NC(=O)[C@H](CCCCN)NC(=O)CNC(=O)CNC(=O)[C@H](C)NC(=O)CNC(=O)[C@H](CCCNC(=N)N)NC(=O)[C@H](CC(C)C)NC(=O)[C@H](Cc2ccccc2)NC(=O)[C@H](CC(=O)O)NC(=O)[C@H](CCCCN)NC1=O [cd4] (cyclo(AGGKRIVQRIKDFLRGAGGKRIVQRIKDFLRG)) | – | 0.625 (≈ 2.25 µg/mL) | 0.625 (≈ 2.25 µg/mL) | 1.25 (≈ 4.49 µg/mL) | ~50 | 0.63 (≈ 2.26 µg/mL) | 2.5 (≈ 8.98 µg/mL) | 2.5 (≈ 8.98 µg/mL) | 5.1 | – | > 40 | – | –
RLFDKIRQVIRK [retro-KR-12] | – | 10 | 5 | 10 | – | – | 5 | – | – | – | – | could not be detected | ~20
